The values below come from patent EP4477653A1 (Perha Pharmaceuticals, priority 2023, dated 2024).

Where two headings read alike, the source gives them in different places.

The nature of data set [1]: Reversed-phase HPLC analysis of final compounds (stability under the analytical conditions). Type of data set: physicochemical. On the procedure: Final compounds: Reversed-phase HPLC/MS analyses were carried out with a HPLC Ultimate 3000 (ThermoScientific) with an UV-DAD detector. Mass detection processing with direct infusion in mass detector (SQD2) from UPLC Acquity (Waters). Compounds (0.2 to 0.6 mg) were solubilized in a mixture of DMSO/H2O (1/1) and filtered on syringe filter 0.2 µm. • Acidic conditions: Thermo Scientific Syncronis C18 column, 150 x 4.6 mm, 5 µm. Flow rate: 1 mL/min. Gradient: (H2O + 0.1% HCOOH v/v)/(ACN + 0.1% HCOOH v/v) from 95/5 to 5/95 in 19.0 min. • Alkaline conditions: Thermo Scientific Syncronis C18 column, 150 × 4.6 mm, 5 µm or XTERRA RP18, 150×4.6mm, 3.5µm. Flow rate: 1 mL/min. Gradient: (HCOONH4 10mM + NH4OH 25% aq. to ajust pH = 10)/ACN from 95/5 to 5/95 in 19.0 min. Table 2: Spectroscopic and analytical characterization of compounds (1) to (220)

Data set [2] concerns the target T1, human recombinant A3AR (expressed in HEK-293 cells) (Homo sapiens, UniProt P0DMS8).
T1 construct: host or cells: HEK-293 cells
T1 sequence (P0DMS8 1-318): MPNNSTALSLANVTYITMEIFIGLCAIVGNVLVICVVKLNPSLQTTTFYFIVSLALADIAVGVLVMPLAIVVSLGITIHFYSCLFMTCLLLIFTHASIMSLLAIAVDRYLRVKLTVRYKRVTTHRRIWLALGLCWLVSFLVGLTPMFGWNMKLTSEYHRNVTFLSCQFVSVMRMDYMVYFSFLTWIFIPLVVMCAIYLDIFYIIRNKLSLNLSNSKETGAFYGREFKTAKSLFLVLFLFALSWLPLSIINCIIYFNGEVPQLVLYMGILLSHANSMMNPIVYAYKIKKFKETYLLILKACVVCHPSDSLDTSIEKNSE
As to the kind of experiment: Adenosine receptors antagonism assay (Eurofins), [125I]-AB-MECA radioligand competition. It counts as binding. A general note: Loss of bound radioactivity is the signal in a displacement assay; it reports binding, not function.
Method: Assays were carried out at r.t. for 120 min. Compounds were initially tested at three concentrations (0.01, 0.1, 1 µM). […] IC50 values, which is the concentration causing a half-maximal inhibition of control specific binding, and Hill coefficients (nH) were determined by non-linear regression analysis of the competition curves generated with mean replicate values using Hill equation curve fitting. The inhibition constants (Ki) were calculated using the Cheng Prusoff equation.

A further data set in a line: LogD (HPLC). It counts as physicochemical. Conditions: by HPLC; Table 2.
The next data set has as its system panel of 168 GPCRs. As to the kind of experiment: PathHunter β-arrestin enzyme fragment complementation, agonist and antagonist mode. It counts as cell-based. Conditions: figure 2. As for the experimental part:
[…] In brief, when the GPCR is activated and β-Arrestin is recruited to the receptor, the two fragments of β-galactosidase complementation occurs, restoring β- galactosidase activity which is measured using chemiluminescent PathHunter® Detection Reagents. The tested compound can be evaluated as a potential agonist or, in the presnece of a specifi agonits of each GPCR, as a potential antagonist. Results are provided in reference to the assay performed in the absence of tested compound.
The results of an evaluation of the potential agonist or antagonist activity of compound (175) on 168 GPCRs are depicted in figure 2.

Data set [3] has as its target T2, Human recombinant A3AR expressed in CHO cells (Homo sapiens, UniProt P0DMS8).
T2 construct: expressed in transfected cells; host or cells: CHO cells
T2 sequence (P0DMS8 1-318): T1 sequence (P0DMS8 1-318)
Briefly: A3AR functional assay, cAMP levels measured by HTRF. It counts as cell-based. On the procedure:
Both assays were run for 20 min at 37°C, and cAMP levels measured by HTRF (homogeneous time resolved fluorescence) was used as an endpoint. The EC50 values (concentration producing a half-maximal response) and IC50 values (concentration causing a half-maximal inhibition of the control agonist response) were determined by non-linear regression analysis of the concentration-response curves generated with mean replicate values using Hill equation curve fitting.
An antagonistic activity in a radioligand assay can be due to competition to the same site by either an agonist or an antagonist (inhibitor). […] Assays were run for 20 min at 37°C and cAMP level measured by HTRF was used as an endpoint measure of the A3AR activity.
(In general: Cyclic AMP is a second messenger, typically raised through Gs and lowered through Gi signalling.)

For data set [4], the system named is hair cells in isolated organs of Corti. Briefly: Otoprotective effects in ex vivo cultured organs of Corti, hair cells stained for myosine 7a. It counts as cell-based, mice. The settings on record: 24 hrs, compound 0.1-1 µM added 2 hrs before. On the procedure:
Organs of Corti were obtained from mice at the P0-P3 stage. Organs of Corti were cultured ex vivo for 24 h before addition of cisplatin (20 µM), gentamycin (100 µM) or neomycin (3 mM) with or without compound (175) (1 or 0.1 µM) added 2 hrs before the ototoxins. After 24 hrs incubation, outer and inner ciliated hair cells were stained with an antibody directed against myosine 7a.

[5] abbreviates: [125I]-AB-MECA 0.15 nM, r.t., 120 min, IC50 from dose-response curves, read-out: Potency Class A3AR.

`CSCCCNc1cc(NCc2ccccc2)c2nnc(C(C)C)n2n1` [compound 17, N8-benzyl-3-isopropyl-N6-(3-methylsulfanylpropyl)-[1,2,4]triazolo[4,3-b]pyridazine-6,8-diamine]: the HPLC entry in data set [1] (Acidic conditions (H2O + 0.1% HCOOH / ACN + 0.1% HCOOH gradient)) was “Unstable ^a”. Besides, in data set [2] (setting [5]), the IC50 fell in the range of 10 to 100 nM.

As for `CCC(CC)Nc1cc(NC(=O)Oc2ccccc2)c2nnc(C(C)C)n2n1` [compound 100, phenyl N-[6-(1-ethylpropylamino)-3-isopropyl-[1,2,4]triazolo[4,3-b]pyridazin-8-yl]carbamate], the HPLC result in data set [1] (Alkaline conditions (HCOONH4 10mM + NH4OH, pH = 10 / ACN gradient)) is given as “Unstable ^b”. Moreover, the IC50 in data set [2] was in the range of 1 to 10 nM.

By chromatographic logD is commonly meant a lipophilicity value derived from retention on a column. Low readings indicate lower lipophilicity, high ones higher lipophilicity. Turning to `CC(C)c1nnc2c(NCc3ccccc3)cc(NCC3CCC3)nn12` [compound 123], the IC50 in data set [2] (read-out: Potency Class A3AR, [125I]-AB-MECA 0.15 nM, r.t., 120 min, IC50 from dose-response curves) is 10 to 100 nM. For the same compound, the chromatographic logD in the data set “LogD (HPLC)” is 3.86.

Consider `CC(C)c1nnc2c(NCc3ccccc3)cc(NCC3CC3)nn12` [compound 122, N8-benzyl-N6-(cyclopropylmethyl)-3-isopropyl-[1,2,4]triazolo[4,3-b]pyridazine-6,8-diamine], for which the IC50 in data set [2] (setting [5]) was 10 to 100 nM. The chromatographic logD in the data set “LogD (HPLC)” was 3.33.

As for `CSCCNc1cc(NCc2ccccc2)c2nnc(C(C)C)n2n1` [compound 143, N8-benzyl-3-isopropyl-N6-(2-methylsulfanylethyl)-[1,2,4]triazolo[4,3-b]pyridazine-6,8-diamine], in data set [2] (setting [5]), the IC50 was 10 to 100 nM. In “LogD (HPLC)”, the chromatographic logD came out at 3.07.

In the case of `CC(C)c1nnc2c(NCc3ccccc3)cc(NC3Cc4ccccc4C3)nn12` [compound 138, N8-benzyl-N6-indan-2-yl-3-isopropyl-[1,2,4]triazolo[4,3-b]pyridazine-6,8-diamine], in data set [2] (setting [5]), the IC50 was 10 to 100 nM. Moreover, in “LogD (HPLC)”, the chromatographic logD stood at 4.08.

For the compound `COC1CCC(Nc2cc(NCc3ccccc3)c3nnc(C(C)C)n3n2)CC1` (racemic) [compound 120, N8-benzyl-3-isopropyl-N6-(4-methoxycyclohexyl)-[1,2,4]triazolo[4,3-b]pyridazine-6,8-diamine], the IC50 in data set [2] (setting [5]) lay within 100 to 1000 nM. The compound further returned a chromatographic logD in “LogD (HPLC)” of 3.09.

`CCC(CC)Nc1cc(Nc2cccnn2)c2nnc(C3CC3)n2n1` [compound 175, 3-cyclopropyl-N6-(pentan-3-yl)-N8-(pyridazin-3-yl)-[1,2,4]triazolo[4,3-b]pyridazine-6,8-diamine]: the “effect on all other GPCRs” value with panel of 168 GPCRs (agonist and antagonist mode, 0.1 µM compound) is listed as “not or marginally impacted”. Also, the “inhibition of A3AR among 168 GPCRs” value in the data set with panel of 168 GPCRs (antagonist mode, GPCR exposed to its specific ligand and 0.1 µM compound) is reported as “fully inhibited”. Moreover, the “selectivity towards ARs” value in data set [2] (A3AR compared to A1AR, A2AAR and A2BAR, figure 3) was “selective of A3AR”. Further, the IC50 in data set [2] (setting [5]) is under 1 nM. For the same compound, the agonist effect entry in data set [3] (absence of ligand, concentrations tested 1 nM to 3.3 µM, data not shown) is “no agonist effect was detected”. The “inhibition of A3AR” value in data set [3] (antagonist mode, stimulation 10 nM IB-MECA, 20 min at 37°C, figure 4) is given as at least 65%. Also, in data set [3] (figure 4), the “mode of action on A3AR” value is “partial antagonist inhibitor”. Also, in data set [4] (cisplatin 20 µM, figure 5A), the “hair cell death induced by cisplatin” value is “prevented cell death”. Besides, the “hair cell death induced by gentamycin” value in data set [4] (gentamycin 100 µM, figure 5B) is “prevented cell death”. The “hair cell death induced by neomycin” value in data set [4] (neomycin 3 mM, figure 5C) is listed as “prevented cell death”.

As to `CC(C)c1nnc2c(NCc3ccccc3)cc(NCc3ccccn3)nn12` [compound 131, N8-benzyl-3-isopropyl-N6-(2-pyridylmethyl)-[1,2,4]triazolo[4,3-b]pyridazine-6,8-diamine], the IC50 in data set [2] (setting [5]) fell in the range of 10 to 100 nM. The compound also yielded a chromatographic logD in the data set “LogD (HPLC)” of 2.51.

On to `CC(C)c1nnc2c(NCc3ccccc3)cc(NC3CCc4ccccc43)nn12` (racemic) [compound 146, N8-benzyl-N6-indan-1-yl-3-isopropyl-[1,2,4]triazolo[4,3-b]pyridazine-6,8-diamine], for which the IC50 in data set [2] (setting [5]) was 10 to 100 nM. The same compound gave a chromatographic logD in “LogD (HPLC)” of 4.1.

With `CC(C)c1nnc2c(NCc3ccccc3)cc(Nc3nccn3C)nn12` [compound 144, N8-benzyl-3-isopropyl-N6-(1-methylimidazol-2-yl)-[1,2,4]triazolo[4,3-b]pyridazine-6,8-diamine], the IC50 in data set [2] (setting [5]) was 100 to 1000 nM. The compound also displayed a chromatographic logD in “LogD (HPLC)” of 2.27.

Take `CCC(CC)CNc1cc(NCc2ccccc2)c2nnc(C(C)C)n2n1` [compound 126, N8-benzyl-N6-(2-ethylbutyl)-3-isopropyl-[1,2,4]triazolo[4,3-b]pyridazine-6,8-diamine]: the IC50 in data set [2] (setting [5]) lay within 1 to 10 nM. In addition, in “LogD (HPLC)”, the chromatographic logD came out at 4.42.
